In ChEMBL document CHEMBL3045645, “Organophosphorus derivatives containing isatin-3-hydrazones as chemotherapeutants against fungal pathogens of sugarcane” (2008):
In brackets after ≈: the same amount, converted by molar mass.

What was measured:
Format in all cases: functional
Curvularia pallescens [1] = experiment: Antifungal activity against Cochliobolus pallescens assessed as mycelial growth inhibition at 28 +/-2 degC after 7 days by food poison technique; details: 168 h
Colletotrichum falcatum [2] = experiment: Antifungal activity against Glomerella tucumanensis assessed as mycelial growth inhibition at 28 +/-2 degC after 7 days by food poison technique; details: 168 h
Fusarium oxysporum [3] = experiment: Antifungal activity against Fusarium oxysporum assessed as mycelial growth inhibition at 28 +/-2 degC after 7 days by food poison technique; details: 168 h
Colletotrichum falcatum [4] = experiment: Antifungal activity against Glomerella tucumanensis assessed as mycelial growth inhibition at 100 ppm at 28 +/-2 degC after 7 days by food poison technique; details: 168 h, read-out: GI
Colletotrichum falcatum [5] = experiment: Antifungal activity against Glomerella tucumanensis assessed as mycelial growth inhibition at 10 ppm at 28 +/-2 degC after 7 days by food poison technique; details: 168 h, read-out: GI
Fusarium oxysporum [6] = experiment: Antifungal activity against Fusarium oxysporum assessed as mycelial growth inhibition at 10 ppm at 28 +/-2 degC after 7 days by food poison technique; details: 168 h, read-out: GI
Fusarium oxysporum [7] = experiment: Antifungal activity against Fusarium oxysporum assessed as mycelial growth inhibition at 100 ppm at 28 +/-2 degC after 7 days by food poison technique; details: 168 h, read-out: GI
Curvularia pallescens [8] = experiment: Antifungal activity against Cochliobolus pallescens assessed as mycelial growth inhibition at 1000 ppm at 28 +/-2 degC after 7 days by food poison technique; details: 168 h, read-out: GI
Fusarium oxysporum [9] = experiment: Antifungal activity against Fusarium oxysporum assessed as mycelial growth inhibition at 1000 ppm at 28 +/-2 degC after 7 days by food poison technique; details: 168 h, read-out: GI
Curvularia pallescens [10] = experiment: Antifungal activity against Cochliobolus pallescens assessed as mycelial growth inhibition at 10 ppm at 28 +/-2 degC after 7 days by food poison technique; details: 168 h, read-out: GI
Colletotrichum falcatum [11] = experiment: Antifungal activity against Glomerella tucumanensis assessed as mycelial growth inhibition at 1000 ppm at 28 +/-2 degC after 7 days by food poison technique; details: 168 h, read-out: GI
Curvularia pallescens [12] = experiment: Antifungal activity against Cochliobolus pallescens assessed as mycelial growth inhibition at 100 ppm at 28 +/-2 degC after 7 days by food poison technique; details: 168 h, read-out: GI
Colletotrichum falcatum [13] = experiment: Ratio of carbendazim MIC to compound MIC for Glomerella tucumanensis after 7 days by food poison technique
Colletotrichum falcatum [14] = experiment: Ratio of mancozeb MIC to compound MIC for Glomerella tucumanensis after 7 days by food poison technique
Fusarium oxysporum [15] = experiment: Ratio of copper oxychloride MIC to compound MIC for Fusarium oxysporum after 7 days by food poison technique
Fusarium oxysporum [16] = experiment: Ratio of thiophanate MIC to compound MIC for Fusarium oxysporum after 7 days by food poison technique
Colletotrichum falcatum [17] = experiment: Ratio of thiophanate MIC to compound MIC for Glomerella tucumanensis after 7 days by food poison technique
Curvularia pallescens [18] = experiment: Ratio of carbendazim MIC to compound MIC for Cochliobolus pallescens after 7 days by food poison technique
Curvularia pallescens [19] = experiment: Ratio of copper oxychloride MIC to compound MIC for Cochliobolus pallescens after 7 days by food poison technique
Colletotrichum falcatum [20] = experiment: Ratio of copper oxychloride MIC to compound MIC for Glomerella tucumanensis after 7 days by food poison technique
Fusarium oxysporum [21] = experiment: Ratio of mancozeb MIC to compound MIC for Fusarium oxysporum after 7 days by food poison technique
Fusarium oxysporum [22] = experiment: Ratio of carbendazim MIC to compound MIC for Fusarium oxysporum after 7 days by food poison technique
Curvularia pallescens [23] = experiment: Ratio of thiophanate MIC to compound MIC for Cochliobolus pallescens after 7 days by food poison technique
Curvularia pallescens [24] = experiment: Ratio of mancozeb MIC to compound MIC for Cochliobolus pallescens after 7 days by food poison technique

SMILES	inhibition of growth at 100 ppm (Colletotrichum falcatum [4])	inhibition of growth at 10 ppm (Colletotrichum falcatum [5])	inhibition of growth at 10 ppm (Fusarium oxysporum [6])	inhibition of growth at 100 ppm (Fusarium oxysporum [7])	inhibition of growth at 1000 ppm (Curvularia pallescens [8])	inhibition of growth at 1000 ppm (Fusarium oxysporum [9])	inhibition of growth at 10 ppm (Curvularia pallescens [10])	inhibition of growth at 1000 ppm (Colletotrichum falcatum [11])	inhibition of growth at 100 ppm (Curvularia pallescens [12])	also measured
COC(=O)NC(=S)Nc1ccccc1NC(=S)NC(=O)OC [THIOPHANATE METHYL]										MIC (Curvularia pallescens [1]): 4000 µg/mL (≈ 11.7 mM); MIC (Colletotrichum falcatum [2]): 4000 µg/mL (≈ 11.7 mM); MIC (Fusarium oxysporum [3]): 4000 µg/mL (≈ 11.7 mM)
CCOP(=S)(OCC)O/C(COc1ccc([N+](=O)[O-])cc1)=N\N=C1/C(=O)Nc2ccccc21	56.2%	48.2%	44.6%	52.6%	65.6%	67.8%	40.6%	68.4%	52.8%	
CCOP(=S)(OCC)O/C(=N\N=C1/C(=O)Nc2ccccc21)c1ccc(OP(=S)(OCC)OCC)cc1	68.2%	58.2%	57.1%	68.2%	81.4%	82.4%	56%	87%	66.2%	
CCOP(=O)(OCC)O/C(=N\N=C1/C(=O)Nc2ccccc21)c1ccccc1	49.4%	40.3%	41.2%	50.4%	59.8%	61.8%	40.4%	60.8%	49.2%	
CCOP(=S)(OCC)O/C(COc1ccc(Cl)cc1)=N\N=C1/C(=O)Nc2ccccc21	90.2%	80.5%	80%	89.2%	100%	100%	78.2%	100%	84.8%	Ratio (Colletotrichum falcatum [13]): 2; Ratio (Colletotrichum falcatum [14]): 2; Ratio (Fusarium oxysporum [15]): 2; MIC (Curvularia pallescens [1]): 1000 µg/mL (≈ 2.08 mM); Ratio (Fusarium oxysporum [16]): 2; Ratio (Colletotrichum falcatum [17]): 2; Ratio (Curvularia pallescens [18]): 2; Ratio (Curvularia pallescens [19]): 2; Ratio (Colletotrichum falcatum [20]): 2; Ratio (Fusarium oxysporum [21]): 2; Ratio (Fusarium oxysporum [22]): 2; Ratio (Curvularia pallescens [23]): 2; MIC (Colletotrichum falcatum [2]): 1000 µg/mL (≈ 2.08 mM); Ratio (Curvularia pallescens [24]): 2; MIC (Fusarium oxysporum [3]): 1000 µg/mL (≈ 2.08 mM)
CCOP(=O)(OCC)O/C(COc1ccc(Cl)cc1)=N\N=C1/C(=O)Nc2ccccc21	71.6%	64.8%	61.8%	74.2%	82.6%	85.6%	60.9%	80.2%	71.8%	
CCOP(=O)(OCC)O/C(COc1ccccc1)=N\N=C1/C(=O)Nc2ccccc21	61.6%	51.2%	50%	59.2%	68.8%	69.6%	50.1%	70.2%	58.2%	
CCOP(=O)(OCC)O/C(COc1ccc([N+](=O)[O-])cc1)=N\N=C1/C(=O)Nc2ccccc21	48.6%	38.6%	37.2%	45.8%	55.6%	61.5%	34%	60.2%	42.8%	
CCOP(=O)(OCC)O/C(=N\N=C1/C(=O)Nc2ccccc21)c1ccc(OP(=O)(OCC)OCC)cc1	62.4%	52.3%	52.6%	58%	67.8%	71.5%	51.8%	69.2%	51.7%	
CCOP(=S)(OCC)O/C(=N\N=C1/C(=O)Nc2ccccc21)c1ccccc1P(=S)(OCC)OCC	67.2%	57.6%	55.2%	66.5%	80.5%	82.8%	54.2%	86.6%	64.2%	
CCOP(=O)(OCC)O/C(COc1ccccc1P(=O)(OCC)OCC)=N\N=C1/C(=O)Nc2ccccc21	67.4%	60.2%	58.6%	64%	71.2%	74.2%	57.2%	78.2%	64.6%	
CCOP(=O)(OCC)O/C(=N\N=C1/C(=O)Nc2ccccc21)c1ccc([N+](=O)[O-])cc1	40.1%	30.2%	29.4%	39.6%	51.8%	56.2%	26.8%	54.2%	38.6%	
CCOP(=S)(OCC)O/C(COc1ccccc1)=N\N=C1/C(=O)Nc2ccccc21	67%	56.2%	54%	69.1%	74.2%	76.8%	52.6%	75.2%	62.7%	
CCOP(=O)(OCC)O/C(COc1ccc(OP(=O)(OCC)OCC)cc1)=N\N=C1/C(=O)Nc2ccccc21	70.2%	61.5%	60.2%	69.2%	76.4%	78.6%	62.8%	80.6%	70%	
CCOP(=S)(OCC)O/C(=N\N=C1/C(=O)Nc2ccccc21)c1ccc(Cl)cc1	72.4%	60.5%	68.6%	78.2%	85.8%	85.8%	61.6%	88.6%	71.6%	
CCOP(=S)(OCC)O/C(COc1ccccc1P(=S)(OCC)OCC)=N\N=C1/C(=O)Nc2ccccc21	81.2%	72.5%	71.6%	80%	93.8%	92.8%	72.8%	95.6%	79.9%	
CCOP(=O)(OCC)O/C(=N\N=C1/C(=O)Nc2ccccc21)c1ccc(Cl)cc1	64.2%	56.8%	54.2%	67.8%	71.2%	72.6%	51.6%	69.6%	62.4%	
CCOP(=S)(OCC)O/C(=N\N=C1/C(=O)Nc2ccccc21)c1ccccc1	65.1%	58.2%	55.2%	69.2%	73.5%	74.2%	55.7%	70.8%	65.8%	
CCOP(=O)(OCC)O/C(=N\N=C1/C(=O)Nc2ccccc21)c1ccccc1P(=O)(OCC)OCC	59.9%	51.5%	49.8%	56.2%	65.6%	66.5%	47.7%	68.8%	56.7%	
CCOP(=S)(OCC)O/C(=N\N=C1/C(=O)Nc2ccccc21)c1ccc([N+](=O)[O-])cc1	46.2%	39.8%	40%	47.2%	57.2%	58.2%	36.2%	58.2%	45.6%	
COC(=O)Nc1nc2ccccc2[nH]1 [CARBENDAZIM]										MIC (Curvularia pallescens [1]): 4000 µg/mL (≈ 20.9 mM); MIC (Colletotrichum falcatum [2]): 4000 µg/mL (≈ 20.9 mM); MIC (Fusarium oxysporum [3]): 3000 µg/mL (≈ 15.7 mM)
